Entries after “also recorded” stand apart in the source; their conditions may differ.
Key:
[1] = system: COX2 protein in human MSC; experiment: Western blot of intracellular COX2 protein in shear stressed MSCs; assay type: cell-based; settings: 10 μM, 8 hours of fluid shear stress
Method: A pilot study was conducted to provide proof of principle that fluid shear stress can be used to condition stem cells, alter gene expression, and enhance functional activities. To exemplify the conditioning activity of shear stress of the type provided by the present system, but on a much smaller analytical scale, force (shear stress) was applied using custom fabricated slides or IBIDI® small-scale microfluidics channel slides obtained from IBIDI, LLC. (Verona, Wis., USA). Human samples were harvested from bone marrow (BM), amniotic fluid (AF), or adipose (AD) tissue, processed for isolation and expansion of hMSC, and stored frozen. Frozen hMSCs were thawed and seeded into T225 cell culture flasks with 50 ml Minimum Essential Medium (MEM-α) (20% FBS, 5% Penicillin/Streptomycin, 5% Glutamine). The media was replaced every 3-4 days. hMSCs were maintained in culture until they were almost 100% confluent. […] The number of live cells present was determined using trypan blue dye exclusion. Live cell counts were determined on a hemacytometer and the cells were resuspended to obtain the desired concentration for each assay (see Table 1). […]
Similarly it was determined utilizing commercially available ELISAs that the media from human MSCs cultures that had been subject to fluid shear stress also contained immunomodulatory proteins, such as prostaglandin E2. […]

[2] = system: TNF-α secretion by activated splenocytes; experiment: TNF-α cytokine suppression assay, MSC co-culture with LPS or PHA-activated splenocytes; assay type: cell-based, mouse; settings: 10 μM; for effect on the ability of shear treated MSC to suppress TNF-α production: six MSC donor lines
Excerpt: FIG. 22 illustrates TNF-α cytokine suppression assays that highlight functional enhancement of MSC immunomodulation. Human MSCs preconditioned by mechanical force (15 dyne/cm2 shear stress for 3 hrs) are placed in static co-culture with lipopoly-saccharide (LPS) or phytohaemagglutinin (PHA)-activated splenocytes including macrophages, neutrophils, NK, B, and T cells. […] Lower values correspond to greater anti-inflammatory potency. hBM MSC, human bone marrow MSC; hAF MSC, amniotic fluid MSC (indicated by a “*” in graph); hAD MSC, adipose-derived MSC (indicated by a “^” in graph). P-values calculated by paired t-test, equal variance.
(§1) Similarly it was determined utilizing commercially available ELISAs that the media from human MSCs cultures that had been subject to fluid shear stress also contained immunomodulatory proteins, such as prostaglandin E2. In addition, Western blotting confirmed elevated protein levels (translation) of COX2, TSG6, and IL1RN. Actin protein expression levels, which are constant, were used as a control for baseline protein expression. […] It was also determined that this induction could be abrogated by the addition of 10 uM of the NF-kappaB antagonist BAY11-7085 (FIG. 21). Furthermore by utilizing commercially available ELISAs, it was determined that the media from human MSCs cultures that had been subject to fluid shear stress for as little as 3 hours had immunosuppressive activity, as evidenced by the 10-50% reduction in TNF-α when treated hMSCs were co-cultured with activated immune cells from the spleen (FIG. 22).

[3] = system: human amniotic fluid MSC; experiment: Priming agents combined with shear stress, anti-inflammatory signaling in hAF MSC; assay type: cell-based
Method: FIG. 24 illustrates that priming agents complement shear-induced anti-inflammatory signaling. Darkened bars represent treatment combinations that indicate a substantial induction of the pathway by shear stress and cytokines (IFN-γ, 20 ng/ml; TNF-α, 50 ng/ml). In this low-performance human amniotic MSC line, TSG6 was induced by shear stress only. IDO was induced by IFN-γ only. hAF MSC, human amniotic fluid MSC.
as §1

CC(C)(C)c1ccc(S(=O)(=O)/C=C/C#N)cc1 [BAY11-7085]
effect on shear-induced COX2 protein [1]: abrogated; also recorded: reduced | effect on the ability of shear treated MSC to suppress TNF-α production [2]: abrogate the positive effects of shear stress

COc1ccc2c(c1)c(CC(=O)O)c(C)n2C(=O)c1ccc(Cl)cc1 [Indomethacin]
effect on the ability of shear treated MSC to suppress TNF-α production [2]: abrogate the positive effects of shear stress

CS(=O)(=O)Nc1ccc([N+](=O)[O-])cc1OC1CCCCC1 [NS-398]
effect on the ability of shear treated MSC to suppress TNF-α production [2]: abrogate the positive effects of shear stress

CCCCC(C)(C)C(O)C=CC1C(O)CC(=O)C1CC=CCCCC(=O)O (stereo not shown) [dmPGE2, 16,16′-dimethyl prostaglandin E2]
effect of ectopic agent on TNF-α production ([2]; compared with sheared MSCs): reduced TNF-α to levels produced in the presence of sheared MSCs; also recorded: mimics MSC suppression

IFN-γ: cytokine priming agent, 20 ng/ml
induction of COX2 and HMOX1 in sheared MSCs with added priming agent ([3]; IFN-γ 20 ng/ml plus shear stress): greater induction | IDO induction ([3]; IFN-γ 20 ng/ml, low-performance human amniotic MSC line): induced

Source: patent publication US11162063B2, “Methods and apparatus for conditioning cell populations for cell therapies” (THE BOARD OF REGENTS OF THE UNIVERSITY OF TEXAS SYSTEM, priority 2015, dated 2021)
